Measured values taken from patent publication US6372727B1, “Metalloporphyrin treatment of neurologic disease” (UAB Research Foundation, priority 1999, dated 2002).

Key:
[1] = MP-catalyzed peroxynitrite decomposition monitored at 302 nm; assay type: biochemical; settings: for Rate Constants for MP-Catalyzed Decomposition of Peroxynitrite (pH 7.4, 37° C.): 100 μM peroxynitrite, absence of added reductants
Protocol: Peroxynitrite (100 μM) was added to rapidly stirred cuvettes at 37° C. containing the indicated concentrations of MPs in 0.1 M potassium phosphate, pH 7.4. Ascorbate was added to 150 μM where indicated. Peroxynitrite decomposition was monitored at 302 nm using a Hewlett-Packard diode-array spectrophotometer. Apparent rates (kapparents^−1, average of n=3) were plotted versus MP concentration to determine rate constants in M^−1s^−1.
Reactions contained the indicated concentration of FeTCPPin 1.4 ml of 0.1 M potassium phosphate, pH 7.4 in the absence or presence to 150 μM ascorbic acid. Peroxynitrite (100 μM) was added to rapidly stirred cuvettes at 37° C. and the decay of peroxynitrite was monitored continuously at 302 nm. Decay data were fitted to the equation describing first order decay to obtain apparent decay rates (kapparent sec^−1). Apparent decay rates as a function of FeTCPP were fitted by linear regression and the rate constant was obtained slope of the line.
Peroxynitrite (100 μM) decomposition was determined at 302 nm using a Hewlett-Packard diode-array spectrophotometer fitted with a temperature-controlled cuvette chamber and a water-driven cuvette stirrer. Bolus additions of peroxynitrite were made to vigorously stirred cuvettes containing varying concentrations of MPs (see Table III) while data were collected at a rate of ten points/sec. […] Each reaction was repeated three times and only the first additions of peroxynitrite were averaged. Data were exported for fitting and plotting. Apparent rates of peroxynitrite decomposition were plotted as a function of metalloporphyrin concentration (as shown in FIG. 5) to determine concentration-independent rate constants at 37° C.
Rates of peroxynitrite (100 μM) decomposition were determined at different MP concentrations. Ascorbate was added to 150 μM where indicated. […] Apparent rate constants were plotted versus MP concentration (as in FIG. 5A,B) to determine true rate constants in M^−1s^−1±standard error.

[2] = Peroxynitrite-mediated nitration of GYA peptide; assay type: biochemical; settings: 2 mM GYA; for effect on nitration: 10 μM MP, pH 7.4; for enhancement of nitration yield: 10 μM MP or SOD subunit, 1 mM CO2, pH 7.4, 37° C.
Protocol: Nitration efficiency, defined as the moles of nitrated GYA peptide formed per mole of peroxynitrite added, was determined at a fixed concentration of 10 μM MP or Cu,Zn SOD subunit, or 1 mM CO2 as described below. Increasing amounts of peroxynitrite were added in a sequential manner in order to determine whether nitration efficiency varied with concentration and to determine whether nitration catalysis was maintained with multiple additions (see INSET). Nitration efficiency was calculated for each peroxynitrite addition; the values shown are the average of all nine peroxynitrite additions. Absorbance changes were monitored simultaneously at 380, 430, and 460 nm.
(§1) For nitration of GYA peptide (see FIG. 6), reaction solutions contained 2 mM GYA and 10 μM of the indicated MP in 1.4 ml of 0.1 M potassium phosphate, pH 7.4 at 37° C. Comparisons with two previously characterized nitration catalysts, human Cu,Zn superoxide dismutase (hCu,Zn SOD) and carbon dioxide, were made using 10 μM of SOD subunit and 25 mM potassium bicarbonate, respectively, which was pH-adjusted to 7.4. This level of bicarbonate results in rapid saturation of the solution with carbon dioxide (˜1 mM). Solutions were placed into a rapidly stirred cuvette and nine bolus additions (50 μM×3, 100 μM×3, and 200 μM×3) of peroxynitrite were made sequentially while the absorbance was monitored. Increasing amounts of peroxynitrite were added in a sequential manner in order to determine whether nitration efficiency varied with concentration and to determine whether nitration catalysis was maintained with multiple additions (see FIG. 6 inset). Nitration efficiency was defined as the amount of nitropeptide formed per amount of peroxynitrite added and was calculated for each peroxynitrite addition; the values shown are the average of all nine peroxynitrite additions. The absorbance changes associated with nitrotyrosine peptide production were monitored simultaneously at 380, 430, and 460 nm. The extinction coefficients for nitrated GYA at pH 7.4 are 4,400 M^−1cm^−1 at 430 nm and 2,200 M^−1cm^−1 at both 380 and 460 nm. […] Wavelengths used to quantify nitrotyrosine production were chosen to minimize interference by the particular metalloporphyrin used. Experiments using HPA as a nitration target (FIG. 7) contained 8 mM HPA in either 0.1 M potassium phosphate, pH 7.4 or 0.1 M sodium borate, pH 9.1.
The relative abilities of several MPs to enhance nitration of the tripeptide GYA was compared using 10 μM MP and sequential bolus additions of 50 μM (×3), 100 μM (×3), and 200 μM (×3)peroxynitrite (FIG. 6, inset).

cultured motor neurons = assay: Protection of cultured motor neurons from growth factor withdrawal; assay type: cell-based; settings: for level of protection compared with FeTCPP: 72 hr after trophic factor deprivation
Protocol: Culture Motor neurons were prepared from embryonic day 15 (E15) rat spinal cords by a combination of metrizamide gradient centrifugation and immunopanning with the monoclonal antibody IgG192 (Chandler et al., J. Biol. Chem. 259:6882-6889, 1984) as previously described (Estevez et al., J Neurosci 18:923-931, 1998; Henderson C E, Bloch-Gallego E, Camu W (1995): Purification and culture of embryonic motorneurons. In Cohen J, Wilkin G (eds): Neural Cell Culture: A Practical Approach. Oxford, England: IRL Press, pp 69-81). Long-term cultures of motor neurons were performed as described by Pennica et al. (Pennica et al., Neuron 17:63-74, 1996). Briefly, motor neurons were plated at a density of 200 cells/cm2 on 35 mm dishes precoated with polyornithine-laminin in Neurobasal medium supplemented with B27 (Life Technologies, Grand Island, N.Y.), 2% horse serum, 0.5 mM L-glutamine, 25 μM 2-mercaptoethanol and 25 μM L-glutamate. Every 3-4 days ¾ of the culture medium was replaced by fresh medium lacking L-glutamate and containing sufficient quantities of BDNF or FeTCPP to supplement the 2 ml of medium in the dish. More than 94% of the cells were immunoreactive for the p75 low-affinity neurotrophic receptor (p75NTR) and Islet ½, which are markers for motor neurons. The experiments were repeated at least 2 times using the same lot of Neurobasal medium and B 27 supplement.
The number of motor neurons with neurites longer than 4 soma diameters present in parallel cultures treated with BDNF at a final concentration of 100 pg/ml 24 h after plating or culture media replacement was considered 100% motor neuron survival. FeTCPP was resuspended in complete Neurobasal medium at a 5 mM concentration. Dilutions were performed of the stock solution to add 20 μl per dish.
Rat motor neurons survive many days in culture when brain-derived neurotrophic factor (BDNF) is added to the culture media. Because motor neurons are the cells that preferentially die in ALS, primary cultures of motor neurons represent the best non-animal model of ALS. Withdrawal of BDNF results in apoptotic death of >70% of motor neurons within 24 h. Cell death was correlated with expression of the neuronal form of nitric oxide synthase (nNOS) and the production of peroxynitrite, as evidenced by protein tyrosine nitration. When FeTCPP is added to the culture media in place of BDNF and motor neuron survival is assessed at 24 h, some protection is seen at concentrations as low as 0.01 μM (FIG. 10A). […] Additionally, a comparison of the effect of FETCPP and its tetra-methyl ester derivative, TMeO-FeTCPP, on motor neuron survival at 72 hr.

[3] = tested on: ALS-SOD1 (G93A) transgenic mice; assay: Survival of ALS-SOD1 (G93A) transgenic mice; assay type: in vivo; settings: G93A mutant of Cu,Zn superoxide dismutase transgene
Protocol: FIG. 13A: Transgenic mice (n=9) were injected intraperitoneally with 3 mg/kg/day of a low molecular weight (844.6) synthetic iron porphyrin. […] Treatment was continued until such time that signs of diaphragm weakness (labored breathing) necessitated sacrifice. A control group of transgenic mice was treated with vehicle only (phosphate-buffered saline). FIG. 13B: Transgenic mice were injected intraperitoneally with 1 mg/kg/day of a low molecular weight (844.6) synthetic iron porphyrin. Treatment began at day 60 prior to the onset of symptoms. A control group of transgenic mice was treated with vehicle only (phosphate-buffered saline).
Mice transgenic for the G93A mutated form of SOD1 are generally accepted as the standard model of motor neuron disease. […] This compound extended the mean survival time by 13 days (from 127 to 140 days) (FIG. 13A).
A group of G93A mice was treated with 1 mg/kg of FeTCPP intraperitoneally beginning at 60 days of age. As with the control group in FIG. 13A, none of the control group in this test survived past 132 days. However, the probability of survival at 140 days was about 37% and at approximately 180 days survival was still at 20%.

[4] = Ascorbate oxidation by MPs monitored at 266 nm; assay type: biochemical; settings: MP 10 μM, 50 μM ascorbate, 0.1 M potassium phosphate pH 7.4, ± standard error, n=3
Protocol: In order to test the hypothesis that Mn(II)- or Fe(II)-porphyrins would be capable of carrying out two-electron reductions of peroxynitrite and thereby decreasing rather than increasing its reactivity, attempts were made to pre-reduce these transition metal-containing MPs prior to addition of peroxynitrite.
Table V. Ascorbate oxidation by MPs. MPs (10 μM) were added to stirred cuvettes containing 0.1 M potassium phosphate, pH 7.4 and 50 μM ascorbate. Ascorbate oxidation was monitored at 266 nm (ηm=17,700 M^−1cm^−1). Oxidation rates (±standard errors) were determined by fitting the initial linear portion of each curve and averaging the rates (n=3).

[5] = MP-catalyzed nitration of HPA: effect of pH, reductants and serum; assay type: biochemical
Protocol: Single additions of 100 μM peroxynitrite were made to reactions containing ascorbate or GSH. Three sequential additions of 100 μM peroxynitrite were made to all other reactions.
as §1, with “This” for “For nitration of GYA peptide (see FIG. 6), reaction solutions contained 2 mM GYA and 10 μM of the indicated MP in 1.4 ml of 0.1 M potassium phosphate, pH 7.4 at 37° C. Comparisons with two previously characterized nitration catalysts, human Cu,Zn superoxide dismutase (hCu,Zn SOD) and carbon dioxide, were made using 10 μM of SOD subunit and 25 mM potassium bicarbonate, respectively, which was pH-adjusted to 7.4. This”

## O=C(O)c1ccc(-c2c3nc(c(-c4ccc(C(=O)O)cc4)c4ccc([n-]4)c(-c4ccc(C(=O)O)cc4)c4nc(c(-c5ccc(C(=O)O)cc5)c5ccc2[n-]5)C=C4)C=C3)cc1.[Zn+2] [ZnTBAP, Zinc (II) tetra-(4-benzoic acid)-porphyrin]
[1]
  Rate Constants for MP-Catalyzed Decomposition of Peroxynitrite (pH 7.4, 37° C.): 5.3 × 10^3 ± 0.3 M^−1s^−1
[2]
  effect on nitration: small but reproducible inhibitory effect

## O=C1O[C@H]([C@@H](O)CO)C(O)=C1O [ascorbate, ascorbic acid]
[1]; ascorbate alone 150 μM, no MP
  acceleration of peroxynitrite decomposition: 16%

## O=C=O [carbon dioxide]
[2]
  enhancement of nitration yield: 1.7 fold

## Copper (II) meso-tetra-(4-sulfonatophenyl)-porphyrin [CuTSPP]
[2]
  effect on nitration: small but reproducible inhibitory effect

## Iron (III) meso 5,10,15,20-tetrakis-(4-carboxymethyl-phenyl) porphyrin [FeTMeO-TCPP]
Cultured motor neurons
  survival of cultured motor neurons deprived of growth factors: prolong survival of cultured motor neurons
Cultured motor neurons; 0.01 μM
  level of protection compared with FeTCPP: twice the level of protection
Cultured motor neurons; 0.1 μM
  level of protection compared with FeTCPP: slightly greater level of protection
[3]
  progression of motor neuron death in mice: slow the progression of motor neuron death

## Iron (III) meso-tetra-(4-sulfonatophenyl)-porphyrin [FeTSPP]
[1]
  Rate Constants for MP-Catalyzed Decomposition of Peroxynitrite (pH 7.4, 37° C.): 3.3 × 10^5 ± 0.4 M^−1s^−1
[2]
  enhancement of nitration yield: 5.3 fold
[4]
  Rate of Ascorbate Oxidation: 4.58 ± 0.21 µM/min
[5]; 8 mM HPA, 10 μM MP, 0.1 M sodium borate pH 9.1, versus non-catalyzed
  enhancement of nitration yield at pH 9.1: 2.8 fold
[5]; concentrations which eliminated non-catalyzed nitration
  effect of ascorbate and GSH on nitration enhancement: largely prevented the enhancement of nitration
[5]; fresh human serum 1:10 added prior to peroxynitrite
  effect of serum on nitration enhancement: largely eliminated the nitration enhancement

B1: BDNF: brain-derived neurotrophic factor (protein, UniProt P23560 19-247, looked up)
Neurotrophic factor BDNF …: APMKEANIRGQGGLAYPGVRTHGTLESVNGPKAGSRGLTSLADTFEHVIEELLDEDQKVRPNEENNKDADLYTSRVMLSSQVPLEPPLLFLLEEYKNYLDAANMSMRVRRHSDPARRGELSVCDSISEWVTAADKKTAVDMSGGTVTVLEKVPVSKGQLKQYFYETKCNPMGYTKEGCRGIDKRHWNSQCRTTQSYVRALTMDSKKRIGWRFIRIDTSCVCTLTIKRGR
Cultured motor neurons; long-term culture in the presence of BDNF
  motor neurons that die between day 8 and day 16: 80%
